Measured values reported in patent publication US20210324092A1, “MONOCLONAL ANTIBODY COMPOSITION FOR TREATMENT OF PHILADELPHIA CHROMOSOME POSITIVE ACUTE LYMPHOBLASTIC LEUKEMIA” (priority 2018, published 2021).

Tested on: BCR-ABL+ pre-B cells
Assay: Rescue of BCR-ABL+ pre-B cells from imatinib-induced cell death; cell cycle analysis (FIGS. 6 and 7)
Assay type: cell-based, mice
Conditions: for effect on BCR-ABL inhibitor (imatinib)-induced cell death: Imatinib 1 μM, IL7 2.5 ng/ml, CXCL12 100 ng/ml, AMD3100 10 μM

c1cc(CN2CCCNCCNCCCNCC2)ccc1CN1CCCNCCNCCCNCC1 [AMD3100, reference compound]
effect on BCR-ABL inhibitor (imatinib)-induced cell death: did not affect imatinib treatment

TSLP: the ligand for CRLF2
effect on BCR-ABL inhibitor (imatinib)-induced cell death: did not affect imatinib treatment

B1: IL7: interleukin 7, a cytokine which is important for B and T cell development (protein, UniProt P13232 26-177, looked up)
Interleukin-7: DCDIEGKDGKQYESVLMVSIDQLLDSMKEIGSNCLNNEFNFFKRHICDANKEGMFLFRAARKLRQFLKMNSTGDFDLHLLKVSEGTTILLNCTGQVKGRKPAALGEAQPTKSLEENKSLKEQKKLNDLCFLKRLLQEIKTCWNKILMGTKEH
effect on BCR-ABL inhibitor (imatinib)-induced cell death: counteracted the BCR-ABL inhibitor-induced cell death | cell cycling under imatinib treatment (imatinib in the presence of IL7): restored cell cycling
